{
  "source": "patent US8669282B2",
  "about": "“Companion animal compositions including lipoic acid and methods of use thereof” (Hill's Pet Nutrition, Inc., priority 2000, dated 2014)",
  "key": {"[1]": {"system": "cartilage markers (CPII, CTXII, COMP)", "experiment": "Serum cartilage (arthritic) markers by ELISA", "assay_type": "in vivo, dogs", "conditions": "for Change CPII / Change CTXII / CPII: blood", "experimental": "Serum cartilage markers were measured using ELISA based kits to determine concentrations of cartilage markers. Day 0 was used as a covariate in the analysis to adjust for baseline values.\nTable 7 illustrates the change in blood level of arthritic markers in dogs after being fed a control diet compared with dogs fed a control plus fish oil and a control plus lipoic acid for 30 days and measured again at day 90.\nTable 12 illustrates arthritic makers measured in blood samples for dogs after being fed a control diet compared with dogs fed a pet food including lipoic acid for 90 days."}, "[2]": {"system": "genes related to cartilage and energy metabolism", "experiment": "Differential gene expression profile, whole blood RNA, canine 2 Affymetrix genechips", "assay_type": "in vivo, dogs", "from_the_text": "Thirty (30) dogs were used to determine the effect of lipoic acid when compared to an AAFCO control food or a test food containing fish oil.\nA differential gene expression profile was studied between an AAFCO control food, a food containing fish oil, and a food containing lipoic acid. At a minimum of 1.3 fold change, a list of 1212 genes was generated compared to the AAFCO control and 1896 genes compared to the food containing fish oil at d 30.\nTotal RNAs were isolated from whole blood samples using the PAXgene RNA isolation kit. All measurements were done with the canine 2 Affymetrix genechips. For statistical analysis, all measurements were normalized with RMA. All analysis was preformed using Partek. An ANOVA t-test was performed for genes that are differentially expressed between the control and test foods were selected based on p-value cutoff 0.1, fold change>+/−1.3.\nTable 9 illustrates the change in genes related to cartilage metabolism and energy metabolism in dogs after being fed a control diet compared with dogs fed a control plus fish oil and a control plus lipoic acid for 90 days."}, "plasma metabolites": {"system": "plasma metabolites", "experiment": "Plasma metabolomics, fold change at day 30", "assay_type": "in vivo, dogs", "experimental": "Plasma metabolites were analyzed and were compared as fold change relative to the control fed dogs.\nTable 5 illustrates the change in pyruvate blood levels in of dogs fed a control diet compared with dogs fed a control plus fish oil and a control plus lipoic acid.\nTable 22 illustrates change in metabolite measured in blood samples for dogs after being fed a control diet compared with dogs fed a pet food including lipoic acid for 30 days."}, "canine bone cells": {"system": "canine bone cells", "experiment": "Genes related to cartilage metabolism altered in canine bone cells", "assay_type": "in vivo, dogs", "conditions": "90 days", "from_the_text": "Table 8 illustrates the directional change (up regulation or down regulation) in genes related to cartilage metabolism in dogs after being fed a control diet compared with dogs fed a control plus fish oil and a control plus lipoic acid for 90 days in canine bone cells."}, "GSH:GSSG": {"system": "GSH:GSSG", "experiment": "GSH:GSSG ratio in blood lymphocytes of dogs fed dl-alpha-lipoic acid in extruded food", "assay_type": "in vivo", "conditions": "chronic feeding in diet", "from_the_text": "Thirty (30) adult, random source, dogs were utilized for this study. Dogs were at least 10 months of age, not pregnant, not lactating and of reasonable body weight prior to start of test. Animals were randomized into 5 groups for dietary treatment with 3 males and 3 females per each group.\nAll dogs were fed a control food (0 ppm dl-alpha-lipoic acid added) that met or exceeded all recommendations for nutrients as proposed by the American Association of Feed Control Officials (AAFCO 2000) during a 2 week prefeeding period (Table 2). Following the prefeeding period dogs were randomized into 5 treatment groups with one of the following dl-alpha lipoic acid target-inclusions (dry matter basis): 0 ppm, 150 ppm, 1500 ppm, 3000 ppm, 4500 ppm. […]\nSolvents and separation conditions were as described (Fariss, Jones). Levels of GSH and GSSG were quantified relative to authentic standards. […]\nComparison of values for clinical chemistry, hematology and body weights vs baseline were analyzed by way of paired t-test on SAS for windows with significance set at P<0.05. Means of values at each measured time point were separated by a one-way ANOVA with significance set at P<0.05. The difference in GSH:GSSG between day 84 and baseline were analyzed between groups by way of SAS for windows in a one-way ANOVA with significance set at P<0.05."}, "[3]": {"conditions": "test food containing 150 ppm lipoic acid, fold change >+/-1.3, p cutoff 0.1"}, "[4]": {"conditions": "blood, day 30, day 0 as covariate"}},
  "data": [
    {"smiles": "O=C(O)CCCCC1CCSS1", "note": "(racemic) [Lipoic acid, dl-alpha-lipoic acid]", "values": [
      {"measurement": "Change CPII", "setting": "[1]; Day 30", "value": "−95.10"},
      {"measurement": "Change CTXII", "setting": "[1]; Day 30", "value": "−5.60"},
      {"measurement": "CPII", "setting": "[1]; Day 30, d 0 as covariate", "value": 986.28, "unit": "ng/mL"},
      {"measurement": "Change CPII", "setting": "[1]; Day 90", "value": "−232.70"},
      {"measurement": "Change CTXII", "setting": "[1]; Day 90", "value": "−0.59"},
      {"measurement": "CPII", "setting": "[1]; Day 90, d 0 as covariate", "value": 848.0, "unit": "ng/mL"},
      {"measurement": "type II collagen C-propeptide and carboxy-terminal crosslinked telopeptide fragment of type II collagen, in words", "setting": "[1]; compared with a similar food without lipoic acid", "value": "greater decrease"},
      {"measurement": "Fold change Facilitated glucose transporter 6", "setting": "[2]; lipoic acid vs. control", "value": 1.3},
      {"measurement": "Fold change chondroitan sulfate protcoglycan 2 (veriscan)", "setting": "[2]; lipoic acid vs. control", "value": 1.5},
      {"measurement": "Fold change N-acetylgalactosaminyl-transferase 1", "setting": "[2]; lipoic acid vs. fish oil", "value": 1.3},
      {"measurement": "number of genes with altered expression vs AAFCO control food", "setting": "[2]; [3]", "value": 1212, "unit": "genes"},
      {"measurement": "number of genes with altered expression vs test food containing fish oil", "setting": "[2]; [3]", "value": 1896, "unit": "genes"},
      {"measurement": "Fold change in pyruvate, Lipoic acid vs Control", "setting": "plasma metabolites; [4]", "value": 0.5379},
      {"measurement": "Fold change in pyruvate, Lipoic acid vs Fish oil", "setting": "plasma metabolites; [4]", "value": 0.6274},
      {"measurement": "metabolite hydroxyproline in plasma, in words", "setting": "plasma metabolites; dogs fed a food containing lipoic acid", "value": "reduced"},
      {"measurement": "MMP3 gene, directional change", "setting": "canine bone cells; probe 1582602_at", "value": "Down"},
      {"measurement": "TIMP2 gene, directional change", "setting": "canine bone cells; probe 1582708_at", "value": "up"},
      {"measurement": "Prolyl 4-hydroxylase gene, directional change", "setting": "canine bone cells; probe 1600479_at", "value": "up"},
      {"measurement": "reduced glutathione (GSH) to oxidized glutathione (GSSG) ratio, in words", "setting": "GSH:GSSG", "value": "improves"}
    ]}
  ]
}
